Source: PubChem BioAssay AID1963847 (Molecular Pharmacology Branch, DTP, NCI, 2024)

System: 415267-285-R-J2-PDC complex spheroid viability
Assay: Anticancer human tumor 415267-285-R-J2-PDC patient-derived breast carcinoma cell line growth inhibition [POLQ]
Details: for IC50: curve of first compound; for viability, T/C: stronger effect = lower value
Method in brief: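 Complex spheroid viability model combining PDC tumour cells with endothelial (HUVEC) and MSC stromal cells. Novobiocin, ART-558 or RP6685 were tested singly and in combination with standard and investigational anticancer drugs. Each was titrated in half-log steps from near clinical Cmax, or from 10 microM where Cmax was unknown.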
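Further: spheroids exposed to compounds for one week before readout.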
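Wherever viability, T/C is given: luminescence used as stand-in measure of viable cells; 100% = DMSO vehicle control viability.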

C#Cc1c(F)ccc2cc(O)cc(-c3ncc4c(N5CC6CCC(C5)N6)nc(OCC56CCCN5CC(F)C6)nc4c3F)c12 (centres undefined) + Cc1cccc(N(C)C(=O)C2C(O)CCN2c2nc(C)cc(C(F)(F)F)c2C#N)c1
IC50 (second compound 0.0316 µM): > 10 µM | IC50 (second compound 0.1 µM): > 10 µM | IC50 (second compound 0.316 µM): > 10 µM | IC50 (second compound 1 µM): > 10 µM | IC50 (second compound 3.16 µM): > 10 µM | IC50 (second compound 10 µM): > 10 µM | viability, T/C (second compound 0.0316 µM, first compound 0.0316 µM): 96.9% | viability, T/C (second compound 0.0316 µM, first compound 0.1 µM): 95.5% | viability, T/C (second compound 0.0316 µM, first compound 0.316 µM): 104% | viability, T/C (second compound 0.0316 µM, first compound 1 µM): 104% | viability, T/C (second compound 0.0316 µM, first compound 3.16 µM): 111% | viability, T/C (second compound 0.0316 µM, first compound 10 µM): 101% | viability, T/C (second compound 0.1 µM, first compound 0.0316 µM): 91.2% | viability, T/C (second compound 0.1 µM, first compound 0.1 µM): 99.8% | viability, T/C (second compound 0.1 µM, first compound 0.316 µM): 91% | viability, T/C (second compound 0.1 µM, first compound 1 µM): 99.8% | viability, T/C (second compound 0.1 µM, first compound 3.16 µM): 104% | viability, T/C (second compound 0.1 µM, first compound 10 µM): 102% | viability, T/C (second compound 0.316 µM, first compound 0.0316 µM): 112% | viability, T/C (second compound 0.316 µM, first compound 0.1 µM): 102% | viability, T/C (second compound 0.316 µM, first compound 0.316 µM): 100% | viability, T/C (second compound 0.316 µM, first compound 1 µM): 115% | viability, T/C (second compound 0.316 µM, first compound 3.16 µM): 113% | viability, T/C (second compound 0.316 µM, first compound 10 µM): 104% | viability, T/C (second compound 1 µM, first compound 0.0316 µM): 101% | viability, T/C (second compound 1 µM, first compound 0.1 µM): 106% | viability, T/C (second compound 1 µM, first compound 0.316 µM): 92.9% | viability, T/C (second compound 1 µM, first compound 1 µM): 117% | viability, T/C (second compound 1 µM, first compound 3.16 µM): 106% | viability, T/C (second compound 1 µM, first compound 10 µM): 109% | viability, T/C (second compound 3.16 µM, first compound 0.0316 µM): 113% | viability, T/C (second compound 3.16 µM, first compound 0.1 µM): 98.8% | viability, T/C (second compound 3.16 µM, first compound 0.316 µM): 104% | viability, T/C (second compound 3.16 µM, first compound 1 µM): 115% | viability, T/C (second compound 3.16 µM, first compound 3.16 µM): 91.3% | viability, T/C (second compound 3.16 µM, first compound 10 µM): 98.7% | viability, T/C (second compound 10 µM, first compound 0.0316 µM): 105% | viability, T/C (second compound 10 µM, first compound 0.1 µM): 95.4% | viability, T/C (second compound 10 µM, first compound 0.316 µM): 95.6% | viability, T/C (second compound 10 µM, first compound 1 µM): 98% | viability, T/C (second compound 10 µM, first compound 3.16 µM): 101% | viability, T/C (second compound 10 µM, first compound 10 µM): 98.4%

CC(=O)O[C@H]1C(=O)[C@@]2(C)[C@H]([C@H](OC(=O)c3ccccc3)[C@]3(O)C[C@H](OC(=O)[C@H](O)[C@@H](NC(=O)c4ccccc4)c4ccccc4)C(C)=C1C3(C)C)[C@]1(OC(C)=O)CO[C@@H]1C[C@@H]2O + Cc1cccc(N(C)C(=O)C2C(O)CCN2c2nc(C)cc(C(F)(F)F)c2C#N)c1
IC50 (second compound 0.0316 µM): < 0.00949 µM | IC50 (second compound 0.1 µM): < 0.00949 µM | IC50 (second compound 0.316 µM): < 0.00949 µM | IC50 (second compound 1 µM): < 0.00949 µM | IC50 (second compound 3.16 µM): < 0.00949 µM | IC50 (second compound 10 µM): < 0.00949 µM | viability, T/C (second compound 0.0316 µM, first compound 0.00949 µM): 17.5% | viability, T/C (second compound 0.0316 µM, first compound 0.03 µM): 9.49% | viability, T/C (second compound 0.0316 µM, first compound 0.0949 µM): 9.45% | viability, T/C (second compound 0.0316 µM, first compound 0.3 µM): 5.12% | viability, T/C (second compound 0.0316 µM, first compound 0.949 µM): 6.11% | viability, T/C (second compound 0.0316 µM, first compound 3 µM): 8.5% | viability, T/C (second compound 0.1 µM, first compound 0.00949 µM): 14.3% | viability, T/C (second compound 0.1 µM, first compound 0.03 µM): 10.3% | viability, T/C (second compound 0.1 µM, first compound 0.0949 µM): 6.91% | viability, T/C (second compound 0.1 µM, first compound 0.3 µM): 5.82% | viability, T/C (second compound 0.1 µM, first compound 0.949 µM): 6.96% | viability, T/C (second compound 0.1 µM, first compound 3 µM): 7.65% | viability, T/C (second compound 0.316 µM, first compound 0.00949 µM): 15.2% | viability, T/C (second compound 0.316 µM, first compound 0.03 µM): 10.9% | viability, T/C (second compound 0.316 µM, first compound 0.0949 µM): 8.77% | viability, T/C (second compound 0.316 µM, first compound 0.3 µM): 8.04% | viability, T/C (second compound 0.316 µM, first compound 0.949 µM): 7.71% | viability, T/C (second compound 0.316 µM, first compound 3 µM): 6.2% | viability, T/C (second compound 1 µM, first compound 0.00949 µM): 16.9% | viability, T/C (second compound 1 µM, first compound 0.03 µM): 8.87% | viability, T/C (second compound 1 µM, first compound 0.0949 µM): 7.59% | viability, T/C (second compound 1 µM, first compound 0.3 µM): 5.96% | viability, T/C (second compound 1 µM, first compound 0.949 µM): 7.86% | viability, T/C (second compound 1 µM, first compound 3 µM): 7.38% | viability, T/C (second compound 3.16 µM, first compound 0.00949 µM): 13.7% | viability, T/C (second compound 3.16 µM, first compound 0.03 µM): 9.96% | viability, T/C (second compound 3.16 µM, first compound 0.0949 µM): 7.09% | viability, T/C (second compound 3.16 µM, first compound 0.3 µM): 7.4% | viability, T/C (second compound 3.16 µM, first compound 0.949 µM): 6.8% | viability, T/C (second compound 3.16 µM, first compound 3 µM): 8.17% | viability, T/C (second compound 10 µM, first compound 0.00949 µM): 12.7% | viability, T/C (second compound 10 µM, first compound 0.03 µM): 10% | viability, T/C (second compound 10 µM, first compound 0.0949 µM): 8.12% | viability, T/C (second compound 10 µM, first compound 0.3 µM): 8.5% | viability, T/C (second compound 10 µM, first compound 0.949 µM): 8.14% | viability, T/C (second compound 10 µM, first compound 3 µM): 9.36%
